Assay results as given in BindingDB's records for doi:10.1021/jm0204441 (The Danish University of Pharmaceutical Sciences, 2003).
pEC50: −log10 of the molar value.

Experiment: Electrophysiological data on Xenopus oocytes, expressing homomeric kainate receptor (GluR5)

With `CC(C)(C)c1s[nH]c(=O)c1C[C@H](N)C(=O)O` [2-Amino-3-(5-tert-butyl-3-hydroxy-isothiazol-4-yl)-propionic acid] the pEC50 was 7.00.
